According to patent US20240101570A1 (AMGEN INC., priority 2020, published 2024):
pIC50: −log10 of the molar value.

What was measured:
[1] = test system: HCT116 MTAP null cells; test: HCT116 MTAP null cell proliferation / viability (CellTiter-Glo, 6 days); type: cell-based; settings: HCT116-MTAP null, 144 h, HCT116 MTAP null cells, 6 days, CellTiter-Glo; read-out: HCT-116 MTAP null IC50
How it was run: (§1)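 IC50 values derive from sigmoidal dose-response fits, some with Hill slope fixed at −1 and top constrained to 100%, others from 4-parameter logistic models. They reflect CellTiter-Glo viability after 6 days of compound exposure at up to 10 or 50 μM.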

[2] = test system: HCT116 WT cells; test: HCT116 WT cell proliferation / viability (CellTiter-Glo, 6 days); type: cell-based; settings: Homo sapiens, HCT-116, 144 h, HCT116 WT cells, 6 days, CellTiter-Glo; read-out: HCT-116 WT IC50
How it was run: as §1

Row | pIC50 [1] | pIC50 [2] | Compound
1 | 5.08 | < 4.30 | CC[C@@H](c1ccc(C(F)(F)F)cn1)N(C)C(=O)c1cc2c3c(c(N)nc2cn1)COC3 (single isomer, unassigned) [Example 850]
2 | 7.33 | 5.40 | C[C@H](c1ccc(C(F)(F)F)cn1)N(C)C(=O)c1ccc2nc(N)c3c(c2c1)CO[C@@H]3C (single isomer, unassigned) [Example 851]
3 | 5.50 | < 4.30 | C[C@H]1OCc2c1c(N)nc1ccc(C(=O)N(C)[C@@H](C)c3ccc(C(F)(F)F)cn3)cc21 (single isomer, unassigned) [Example 852]
4 | 6.78 | 4.84 | C[C@H](c1ncc(F)cc1F)N(C)C(=O)c1cc2c(cc1F)nc(N)c1cnn(C)c12 (single isomer, unassigned) [Example 853]
5 | 7.07 | 5.48 | C[C@H](c1ccc(C(F)(F)F)cn1)N(C)C(=O)c1cc2c3c(c(N)nc2cn1)COC3 (single isomer, unassigned) [Example 854]
6 | 6.79 | 4.54 | C[C@H](c1ccc(C(F)(F)F)nn1)N(C)C(=O)c1ccc2nc(N)c3cnn(C)c3c2c1 (single isomer, unassigned) [Example 855]
7 | 7.06 | 5.07 | C[C@H](c1ccc(C(F)(F)F)nn1)N(C)C(=O)c1ccc2nc(N)c3c(c2c1)CO[C@@H]3C (single isomer, unassigned) [Example 856]
8 | 7.59 | 5.96 | C[C@H](c1ccc(C(F)(F)F)cc1)N(C)C(=O)c1cc2c3c(c(N)nc2cc1F)COC3 (single isomer, unassigned) [Example 857]
9 | 7.39 | 5.48 | C[C@H](c1ccc(C(F)(F)F)nn1)N(C)C(=O)c1cc2c3c(c(N)nc2cc1F)COC3 (single isomer, unassigned) [Example 858]
10 | 6.23 | 4.76 | C[C@H]1OCc2c1c(N)nc1cc(F)c(C(=O)N(C)[C@@H](C)c3ccc(C(F)(F)F)cc3)cc21 (single isomer, unassigned) [Example 859]
11 | 7.77 | 6.07 | C[C@H](c1ccc(C(F)(F)F)cc1)N(C)C(=O)c1cc2c3c(c(N)nc2cc1F)[C@@H](C)OC3 (single isomer, unassigned) [Example 860]
12 | 6.69 | 4.87 | C[C@H](c1ncc(C(F)(F)F)cc1F)N(C)C(=O)c1cc2c(cn1)nc(N)c1c2cnn1C (single isomer, unassigned) [Example 861]
13 | 7.51 | 5.66 | C[C@H](c1ccc(C(F)(F)F)nn1)N(C)C(=O)c1cc2c3c(c(N)nc2cc1F)[C@@H](C)OC3 (single isomer, unassigned) [Example 862]
14 | 8.15 | 6.47 | C[C@H](c1ncc(C(F)(F)F)cc1F)N(C)C(=O)c1cc2c(cc1F)nc(N)c1cnn(C)c12 (single isomer, unassigned) [Example 863]
15 | 6.21 | 4.64 | C[C@@H](c1ncc(C(F)(F)F)cc1F)N(C)C(=O)c1cc2c(cc1F)nc(N)c1cnn(C)c12 (single isomer, unassigned) [Example 864]
16 | 7.23 | 5.55 | C[C@H](c1ncc(C(F)(F)F)cc1F)N(C)C(=O)c1cc2c(cc1F)nc(N)c1c2cnn1C (single isomer, unassigned) [Example 865]
17 | 6.51 | 4.95 | COc1cc(C(F)(F)F)cnc1[C@@H](C)N(C)C(=O)c1cc2c(cc1F)nc(N)c1c2cnn1C (single isomer, unassigned) [Example 866]

Row | pIC50 [1] | pIC50 [2] | Compound
18 | 6.80 | 5.11 | COc1cc(C(F)(F)F)cnc1[C@@H](C)N(C)C(=O)c1cc2c(cc1F)nc(N)c1cnn(C)c12 (single isomer, unassigned) [Example 867]
19 | 7.23 | 5.42 | C[C@H](c1ccc(S(F)(F)(F)(F)F)cc1)N(C)C(=O)c1cc2c(cn1)nc(N)c1c2cnn1C (single isomer, unassigned) [Example 868]
20 | 6.20 | 5.07 | C[C@@H](c1ccc(S(F)(F)(F)(F)F)cc1)N(C)C(=O)c1cc2c(cc1F)nc(N)c1cnn(C)c12 (single isomer, unassigned) [Example 869]
21 | 8.15 | 6.79 | C[C@H](c1ccc(S(F)(F)(F)(F)F)cc1)N(C)C(=O)c1cc2c(cc1F)nc(N)c1cnn(C)c12 (single isomer, unassigned) [Example 870]
22 | 7.60 | 7.11 | CC[C@H](c1cncnc1)N(Cc1ccc(S(F)(F)(F)(F)F)cc1)C(=O)c1cc2c(cn1)nc(N)c1cnn(C)c12 (single isomer, unassigned) [Example 871]
23 | 7.12 | 5.35 | CC[C@@H](c1cncnc1)N(Cc1ccc(S(F)(F)(F)(F)F)cc1)C(=O)c1cc2c(cn1)nc(N)c1cnn(C)c12 (single isomer, unassigned) [Example 872]
24 | 7.18 | 5.14 | C[C@H](c1ccc(F)cn1)N(C)C(=O)c1cc2c(cc1F)nc(N)c1cnn(C)c12 (single isomer, unassigned) [Example 873]
25 | 6.03 | 4.44 | C[C@@H](c1ccc(F)cn1)N(C)C(=O)c1cc2c(cc1F)nc(N)c1cnn(C)c12 (single isomer, unassigned) [Example 874]
26 | 7.60 | 5.85 | CCN(C(=O)c1cc2c(cc1F)nc(N)c1cnn(C)c12)[C@H](C)c1ccc(F)cn1 (single isomer, unassigned) [Example 875]
27 | 6.48 | 4.52 | CCN(C(=O)c1cc2c(cc1F)nc(N)c1cnn(C)c12)[C@@H](C)c1ccc(F)cn1 (single isomer, unassigned) [Example 876]
28 | 6.12 | 4.36 | C[C@@H](c1ccc(C(F)(F)F)nn1)N(C(=O)c1cc2c(cc1F)nc(N)c1cnn(C)c12)C1CC1 (single isomer, unassigned) [Example 877]
29 | 8.00 | 6.15 | C[C@H](c1ccc(C(F)(F)F)nn1)N(C(=O)c1cc2c(cc1F)nc(N)c1cnn(C)c12)C1CC1 (single isomer, unassigned) [Example 878]
30 | 6.74 | 4.91 | C[C@H](c1ccc(C(F)(F)F)nn1)N(C)C(=O)c1cc2c(cc1C(F)(F)F)nc(N)c1cnn(C)c12 (single isomer, unassigned) [Example 879]
31 | 6.86 | 5.08 | C[C@@H](c1ccc(C(F)(F)F)nn1)N(C(=O)c1cc2c(cc1Cl)nc(N)c1cnn(C)c12)C1CC1 (single isomer, unassigned) [Example 880]
32 | 8.15 | 6.43 | C[C@H](c1ccc(C(F)(F)F)nn1)N(C(=O)c1cc2c(cc1Cl)nc(N)c1cnn(C)c12)C1CC1 (single isomer, unassigned) [Example 881]
33 | 7.39 | 5.87 | Nc1nc2ccc(C(=O)N(Cc3ccc(C(F)(F)F)cn3)CC3CC3)cc2c2c1COC2 [Example 300, 4-amino-N-(cyclopropylmethyl)-N-[[5-(trifluoromethyl)-2-pyridyl]methyl]-1,3-dihydrofuro[3,4-c]quinoline-8-carboxamide]
34 | 6.59 | 4.96 | CC(C)N(Cc1ccc(C#N)cn1)C(=O)c1ccc2nc(N)c3c(c2c1)COC3 [Example 301, 4-amino-N-((5-cyano-2-pyridinyl)methyl)-N-(2-propanyl)-1,3-dihydrofuro[3,4-c]quinoline-8-carboxamide]
